The results in this text go back to article PMC5443859, “EGFR-targeting peptide-coupled platinum(IV) complexes” (Journal of Biological Inorganic Chemistry, 2017).

The subject of one assay is A431 cells. The assay is described as follows: Long-term clonogenic assay, 14 days. The assay is classed as cell-based, human. The conditions noted are these: 25 and 50 µM, crystal violet, three experiments in duplicates, result in words. Here is the method:
Subsequently, the dissolved drugs were added.

The subject of the next assay is RUMH cells. The assay is described as follows: cells. The assay is classed as cell-based. The conditions noted are these: Homo sapiens, EGFR/wt overexpression, 72 h treatment, MTT assay. On the procedure:
(§1) The following human cell models were used in this study: the renal cell carcinomas RUMH, the squamous cell carcinoma H520, the epidermoid carcinoma A431, as well as the non-small-cell lung cancer (NSCLC) line HCC827 (sources and used medium are summarized in (Table 2). Unless otherwise indicated, the cells were cultivated in humidified incubators (37 °C, 21% O2, 5% CO2) in full culture medium, containing 10% fetal calf serum (PAA, Linz, Austria). Cell cultures were periodically checked for Mycoplasma contamination.
(§2) Subsequently, the dissolved drugs were added. […] Cytotoxicity was expressed as IC50 values calculated from full dose–response curves using GraphPad Prism software. […] Then, the cells were exposed to the indicated drugs (25 or 50 µM) for 14 days. After washing with phosphate-buffered saline (PBS), the cells were fixed with methanol (−20 °C, 20 min) and after another washing step stained with crystal violet (1 h). […] The sum of fluorescence intensities per well was measured with ImageJ and, after blank subtraction, normalized to the untreated cells.

The next assay concerns H520 cells. Nature of the assay: cells. The conditions noted are these: Homo sapiens, NCI-H520, 72 h, read-out: IC50 ± SD. On the procedure: as §1, §2

Turning to `O=C1[O][Pt]2([NH][C@@H]3CCCC[C@H]3[NH]2)[O]C1=O` [oxaliplatin], in the assay with A431 cells, the “long-term treatment effect, normalized to untreated cells” value was “too low to be seen in this graph”.

Regarding `C#Cc1cccc(Nc2ncnc3cc(OCCOC)c(OCCOC)cc23)c1` [Erlotinib, erlotinib], the IC50 is 23 ± 2.6 µM with RUMH cells and greater than 25 µM with H520 cells.
